Measurements from ChEMBL document CHEMBL4814032, “Discovery of an indole-substituted furanone with tubulin polymerization inhibition activity” (Bioorg Med Chem Lett, 2021).
Calls of active or inactive are those of the source. No cut-off for these calls is given here.

Tests used:
[1] = target: Vascular endothelial growth factor receptor 3 (Homo sapiens) (UniProt P35916); assay: Binding affinity to VEGFR3 (unknown origin)
[2] = target: T1, Protein kinase C epsilon type (Homo sapiens) (UniProt Q02156); assay: Binding affinity to PKCepsilon (unknown origin)
T1 sequence (whole entry): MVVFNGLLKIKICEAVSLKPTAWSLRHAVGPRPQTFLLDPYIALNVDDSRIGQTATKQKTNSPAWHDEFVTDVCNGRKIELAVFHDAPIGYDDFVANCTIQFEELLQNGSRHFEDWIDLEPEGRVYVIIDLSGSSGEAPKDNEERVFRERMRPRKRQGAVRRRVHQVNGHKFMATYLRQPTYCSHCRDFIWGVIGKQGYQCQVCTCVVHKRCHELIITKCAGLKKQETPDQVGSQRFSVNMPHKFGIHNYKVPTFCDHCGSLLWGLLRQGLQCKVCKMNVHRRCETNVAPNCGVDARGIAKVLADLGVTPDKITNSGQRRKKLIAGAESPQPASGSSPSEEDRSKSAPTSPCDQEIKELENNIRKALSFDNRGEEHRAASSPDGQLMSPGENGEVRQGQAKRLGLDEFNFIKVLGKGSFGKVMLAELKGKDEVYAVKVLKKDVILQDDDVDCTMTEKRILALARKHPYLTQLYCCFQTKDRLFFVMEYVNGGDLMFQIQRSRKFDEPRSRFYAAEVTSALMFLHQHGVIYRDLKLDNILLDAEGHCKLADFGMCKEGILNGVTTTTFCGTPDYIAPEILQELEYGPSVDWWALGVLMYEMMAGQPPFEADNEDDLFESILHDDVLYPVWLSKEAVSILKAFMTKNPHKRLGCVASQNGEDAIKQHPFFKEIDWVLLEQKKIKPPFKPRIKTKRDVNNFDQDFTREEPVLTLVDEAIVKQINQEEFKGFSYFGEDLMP

[3] = target: Tubulin (Homo sapiens) (UniProt P68371+Q9H4B7+P0DPH7+P68366+Q13509+Q71U36+P04350+Q3ZCM7+P07437+P68363+Q9BQE3+Q6PEY2+Q13885+Q9BVA1+Q9BUF5); assay: Inhibition of tubulin polymerization (unknown origin) at 10 uM; type: protein-complex assay
[4] = test system: U-937; assay: Cytotoxicity against human U-937 cells by MTT assay; type: functional, cell-based

Sequence of Vascular endothelial growth factor receptor 3 (Homo sapiens) (P35916 whole entry): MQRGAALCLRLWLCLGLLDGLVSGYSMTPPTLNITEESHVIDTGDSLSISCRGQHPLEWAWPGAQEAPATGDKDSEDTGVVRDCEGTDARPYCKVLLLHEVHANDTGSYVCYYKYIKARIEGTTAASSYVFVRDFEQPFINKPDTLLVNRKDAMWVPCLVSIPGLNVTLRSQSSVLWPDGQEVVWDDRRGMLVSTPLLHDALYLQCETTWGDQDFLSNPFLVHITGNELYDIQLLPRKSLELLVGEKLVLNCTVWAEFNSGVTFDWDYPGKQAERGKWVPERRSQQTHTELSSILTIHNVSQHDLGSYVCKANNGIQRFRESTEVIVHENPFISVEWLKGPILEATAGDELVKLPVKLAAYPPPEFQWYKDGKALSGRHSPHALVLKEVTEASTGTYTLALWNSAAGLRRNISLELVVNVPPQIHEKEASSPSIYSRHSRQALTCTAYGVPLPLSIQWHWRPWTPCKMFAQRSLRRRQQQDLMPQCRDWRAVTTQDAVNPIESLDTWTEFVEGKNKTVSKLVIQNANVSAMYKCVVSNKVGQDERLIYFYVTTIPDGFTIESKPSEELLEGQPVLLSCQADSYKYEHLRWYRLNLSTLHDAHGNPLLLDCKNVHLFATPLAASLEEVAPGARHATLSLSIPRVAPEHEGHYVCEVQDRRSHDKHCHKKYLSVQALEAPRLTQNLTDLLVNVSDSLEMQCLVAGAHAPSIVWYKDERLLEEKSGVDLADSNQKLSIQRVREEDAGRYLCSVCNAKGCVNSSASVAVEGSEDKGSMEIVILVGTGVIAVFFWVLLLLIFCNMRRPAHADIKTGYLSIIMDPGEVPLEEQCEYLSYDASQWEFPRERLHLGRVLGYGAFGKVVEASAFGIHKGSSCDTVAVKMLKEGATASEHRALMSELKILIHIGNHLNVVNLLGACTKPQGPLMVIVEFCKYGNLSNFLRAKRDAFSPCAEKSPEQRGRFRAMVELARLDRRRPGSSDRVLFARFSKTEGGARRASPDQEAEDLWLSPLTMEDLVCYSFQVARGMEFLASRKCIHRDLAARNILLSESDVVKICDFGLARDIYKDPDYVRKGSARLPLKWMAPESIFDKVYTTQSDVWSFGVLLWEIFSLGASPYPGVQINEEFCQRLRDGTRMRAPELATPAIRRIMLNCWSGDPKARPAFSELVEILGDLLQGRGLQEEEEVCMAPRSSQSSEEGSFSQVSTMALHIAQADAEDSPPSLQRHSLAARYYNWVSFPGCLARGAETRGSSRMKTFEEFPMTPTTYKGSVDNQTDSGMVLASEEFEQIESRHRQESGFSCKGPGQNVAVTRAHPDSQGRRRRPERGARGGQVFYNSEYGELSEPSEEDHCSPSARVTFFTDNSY

Structure (SMILES)	IC50 [4] [µM]	also measured
COc1ccc(C2=C(c3cn(C)c4ccccc34)C(=O)NC2)cc1OC	–	Activity [1]: 50%; Activity [2]: 47%
CCOC(=O)n1cc(C2=C(c3ccc(OC)c(OC)c3)COC2=O)c2ccccc21	0.3	inhibition [3]: Active
COc1ccc(C2=C(c3cn(C)c4ccccc34)C(=O)OC2)cc1OC	1	–
CCCN1CC(c2ccc(OC)c(OC)c2)=C(c2cn(C)c3ccccc23)C1=O	5	–
CCCN1CC(c2ccc(OC)c(OC)c2)=C(c2cn(C(=O)OCC)c3ccccc23)C1=O	5	–
CCCN1CC(c2ccc(OC)c(OC)c2)=C(c2c[nH]c3ccccc23)C1=O	35	–
COc1ccc(C2=C(c3c[nH]c4ccccc34)C(=O)OC2)cc1OC	9	–
